Results on one compound are retold here after patent US8906825B2, “Herbicidal compositions comprising 4-amino-3-chloro-5-fluoro-6-(4-chloro-2-fluoro-3-methoxyphenyl) pyridine-2-carboxylic acid or a derivative thereof and triazolopyrimidine sulfonamides” (Dow AgroSciences LLC, priority 2012, dated 2014).

The test system of the experiment is CYPIR (Cyperus iria L., rice flatsedge). In words: Postemergence foliar-applied herbicidal mixtures, direct seeded rice, greenhouse (Example I). It counts as in vivo.

On to `COc1c(Cl)ccc(-c2nc(C(=O)OCc3ccccc3)c(Cl)c(N)c2F)c1F` [Compound A Benzyl Ester, benzyl ester of 4-amino-3-chloro-5-fluoro-6-(4-chloro-2-fluoro-3-methoxy-phenyl)pyridine-2-carboxylic acid], for which the “Visual Weed Control (%) - 20 DAA CYPIR Obs” value (Compound A Benzyl Ester 4.38 gae/ha) came to 15%, the “Visual Weed Control (%) - 20 DAA CYPIR Obs” value (Compound A Benzyl Ester 8.75 gae/ha) came out at 60% and the “Visual Weed Control (%) - 20 DAA CYPIR Obs” value (Compound A Benzyl Ester 17.5 gae/ha) stood at 90%. Besides, the “Visual Weed Control (%) - 22 DAA CYPIR Obs” value (Compound A Benzyl Ester 8 gae/ha) came to 20% and the “Visual Weed Control (%) - 22 DAA CYPIR Obs” value (Compound A Benzyl Ester 16 gae/ha) amounted to 85%.
